Columns and labels:
Conditions in all cases: 21 DAA
PAPRH = assay: Example III: post-emergence foliar-applied weed control in cereal crops, greenhouse; type: in vivo, Papaver rhoeas L.
Protocol: (§1) Seeds of the desired test plant species were planted in Sun Gro MetroMix® 306 planting mixture, which typically has a pH of 6.0 to 6.8 and an organic matter content of about 30 percent, in plastic pots with a surface area of 103.2 square centimeters (cm^2). When required to ensure good germination and healthy plants, a fungicide treatment and/or other chemical or physical treatment was applied. The plants were grown for 7-36 days in a greenhouse with an approximate 14 hour photoperiod which was maintained at about 18° C. during the day and 17° C. during the night. Nutrients and water were added on a regular basis and supplemental lighting was provided with overhead metal halide 1000-Watt lamps as necessary. The plants were employed for testing when they reached the second or third true leaf stage.
(§2) Treatments consisted of the benzyl ester of 4-amino-3-chloro-5-fluoro-6-(4-chloro-2-fluoro-3-methoxy-phenyl)pyridine-2-carboxylic acid (Compound A), formulated as an SC (suspension concentrate), and a second cereal herbicide alone and in combination.
(§3) Measured aliquots of the benzyl ester of 4-amino-3-chloro-5-fluoro-6-(4-chloro-2-fluoro-3-methoxy-phenyl)pyridine-2-carboxylic acid (Compound A) were placed in 25 milliliter (mL) glass vials and diluted in a volume of 1.25% (v/v) Agri-dex crop oil concentrated to obtain stock solutions. Compound requirements are based upon a 12 mL application volume at a rate of 187 liters per hectare (L/ha). Spray solutions of the second cereal herbicide and experimental compound mixtures were prepared by adding the stock solutions to the appropriate amount of dilution solution to form 12 mL spray solution with active ingredients in two- and three-way combinations. Formulated compounds were applied to the plant material with an overhead Mandel track sprayer equipped with an 8002E nozzle calibrated to deliver 187 L/ha over an application area of 0.503 square meters (m^2) at a spray height of 18 inches (46 cm) above average plant canopy. Control plants were sprayed in the same manner with the solvent blank.
(§4) The treated plants and control plants were placed in a greenhouse as described above and watered by sub-irrigation to prevent wash-off of the test compounds. After 20-22 days, the condition of the test plants as compared with that of the control plants was determined visually and scored on a scale of 0 to 100 percent where 0 corresponds to no injury and 100 corresponds to complete kill.
(§5) Colby's equation was used to determine the herbicidal effects expected from the mixtures (Colby, S. R. 1967. Calculation of the synergistic and antagonistic response of herbicide combinations. Weeds 15:20-22.).

STEME = assay: as above; type: in vivo, Stellaria media (L.) Vill.
Protocol: as §1, §2, §3, §4, §5

ISCRU = assay: Example I: postemergence foliar-applied weed control, greenhouse; type: in vivo, Ischaemum rugosum Salisb. (saramollagrass)
Excerpt: Seeds or nutlets of the desired test plant species were planted in a soil matrix prepared by mixing a loam or sandy loam soil (e.g., 28.6 percent silt, 18.8 percent clay, and 52.6 percent sand, with a pH of about 5.8 and an organic matter content of about 1.8 percent) and calcareous grit in an 80 to 20 ratio. The soil matrix was contained in plastic pots with a volume of 1 quart and a surface area of 83.6 square centimeters (cm^2). When required to ensure good germination and healthy plants, a fungicide treatment and/or other chemical or physical treatment was applied. The plants were grown for 8-22 days in a greenhouse with an approximate 14 hr photoperiod which was maintained at about 29° C. during the day and 26° C. during the night. Nutrients (Peters Excel® 15-5-15 5-Ca 2-Mg and iron chelate) were applied in the irrigation solution as needed and water was added on a regular basis. Supplemental lighting was provided with overhead metal halide 1000-Watt lamps as necessary. The plants were employed for testing when they reached the first through fourth true leaf stage.
Treatments consisted of the acid or esters of 4-amino-3-chloro-5-fluoro-6-(4-chloro-2-fluoro-3-methoxy-phenyl)pyridine-2-carboxylic acid (Compound A), each formulated as an SC (suspension concentrate), and various herbicidal components alone and in combination. Forms of compound A were applied on an acid equivalent basis.
Other herbicidal components were applied on an active ingredient basis and included very long chain fatty acid (VLCFA) synthesis-inhibiting and fatty acid/lipid synthesis-inhibiting herbicides acetochlor (technical grade material), acetochlor+dichlormid formulated as Topnotch®, pretilachlor (technical grade material), butachlor formulated as Butachlor EC, fentrazamide formulated as Fentrazamide EC, thiobencarb formulated as Bolero® 8EC, cafenstrole formulated as Himeadow® WP or Lapost® Flowable, benfuresate formulated as Full Shot®, dimethenamid-P formulated as Outlook®, indanofan (technical grade material), flufenacet formulated as Define® DF, mefenacet (technical grade material), S-metolachlor formulated as Dual® II Magnum, pethoxamid formulated as Successor® 600, and pyroxasulfone (technical grade material).
Treatment requirements were calculated based upon the rates being tested, the concentration of active ingredient or acid equivalent in the formulation, and a 12 mL application volume at a rate of 187 L/ha.
For treatments comprised of formulated compounds, measured amounts of compounds were placed individually in 25 mL glass vials and diluted in a volume of 1.25% (v/v) Agri-Dex® crop oil concentrated to obtain 12× stock solutions. […]

CIRAR = assay: Example III: post-emergence foliar-applied weed control in cereal crops, greenhouse; type: in vivo, Cirsium arvense (L.) Scop.
Protocol: as §1, §2, §3, §4, §5

GALAP = assay: as above; type: in vivo, Galium aparine L.
Protocol: as §1, §2, §3, §4, §5

COc1c(Cl)ccc(-c2nc(C(=O)OCc3ccccc3)c(Cl)c(N)c2F)c1F [Compound A Benzyl Ester, benzyl ester of 4-amino-3-chloro-5-fluoro-6-(4-chloro-2-fluoro-3-methoxy-phenyl)pyridine-2-carboxylic acid]
Visual Weed Control PAPRH Obs (PAPRH; 2.5 gai/ha): 48% | Visual Weed Control PAPRH Obs (PAPRH; 5 gai/ha): 28% | Visual Weed Control PAPRH Obs (PAPRH; 10 gai/ha): 35% | Visual Weed Control STEME Obs (STEME; 2.5 gai/ha): 25% | Visual Weed Control STEME Obs (STEME; 5 gai/ha): 25% | Visual Weed Control STEME Obs (STEME; 10 gai/ha): 27% | Visual Weed Control Obs (ISCRU; 8 gae/ha): 20% | Visual Weed Control Obs (ISCRU; 16 gae/ha): 0% | Visual Weed Control CIRAR Obs (CIRAR; 2.5 gai/ha): 48% | Visual Weed Control CIRAR Obs (CIRAR; 5 gai/ha): 39% | Visual Weed Control CIRAR Obs (CIRAR; 10 gai/ha): 60% | Visual Weed Control GALAP Obs (GALAP; 2.5 gai/ha): 55% | Visual Weed Control GALAP Obs (GALAP; 5 gai/ha): 66% | Visual Weed Control GALAP Obs (GALAP; 10 gai/ha): 77%
